Test results from ChEMBL document CHEMBL5131428, “Discovery of potent antiproliferative agents from selected oxygen heterocycles as EGFR tyrosine kinase inhibitors from the U.S. National Cancer Institute database by in silico screening and bioactivity evaluation” (Bioorg Med Chem Lett, 2022).
pIC50: −log10 of the molar value.

Columns and labels:
A-431 [1] = assay: Antiproliferative activity against human A-431 cells overexpressing EGFR assessed as cell survival at 10 uM relative to control; format: functional; details: read-out: Survival
[2] = target: T1, Epidermal growth factor receptor (Homo sapiens, UniProt P00533); assay: Inhibition of EGFR tyrosine kinase (unknown origin) preincubated for 5 mins followed by substrate addition and further incubated for 10 mins in presence of ATP by fluorescence based microplate reader analysis
HeLa = assay: Antiproliferative activity against human HeLa cells assessed as cell growth inhibition by MTT assay; format: functional, cell-based
A-431 [3] = assay: Antiproliferative activity against human A-431 cells overexpressing EGFR assessed as cell growth inhibition by MTT assay; format: functional, cell-based
[4] = target: T1, Epidermal growth factor receptor; assay: Inhibition of EGFR tyrosine kinase (unknown origin)

T1 sequence (P00533 whole entry): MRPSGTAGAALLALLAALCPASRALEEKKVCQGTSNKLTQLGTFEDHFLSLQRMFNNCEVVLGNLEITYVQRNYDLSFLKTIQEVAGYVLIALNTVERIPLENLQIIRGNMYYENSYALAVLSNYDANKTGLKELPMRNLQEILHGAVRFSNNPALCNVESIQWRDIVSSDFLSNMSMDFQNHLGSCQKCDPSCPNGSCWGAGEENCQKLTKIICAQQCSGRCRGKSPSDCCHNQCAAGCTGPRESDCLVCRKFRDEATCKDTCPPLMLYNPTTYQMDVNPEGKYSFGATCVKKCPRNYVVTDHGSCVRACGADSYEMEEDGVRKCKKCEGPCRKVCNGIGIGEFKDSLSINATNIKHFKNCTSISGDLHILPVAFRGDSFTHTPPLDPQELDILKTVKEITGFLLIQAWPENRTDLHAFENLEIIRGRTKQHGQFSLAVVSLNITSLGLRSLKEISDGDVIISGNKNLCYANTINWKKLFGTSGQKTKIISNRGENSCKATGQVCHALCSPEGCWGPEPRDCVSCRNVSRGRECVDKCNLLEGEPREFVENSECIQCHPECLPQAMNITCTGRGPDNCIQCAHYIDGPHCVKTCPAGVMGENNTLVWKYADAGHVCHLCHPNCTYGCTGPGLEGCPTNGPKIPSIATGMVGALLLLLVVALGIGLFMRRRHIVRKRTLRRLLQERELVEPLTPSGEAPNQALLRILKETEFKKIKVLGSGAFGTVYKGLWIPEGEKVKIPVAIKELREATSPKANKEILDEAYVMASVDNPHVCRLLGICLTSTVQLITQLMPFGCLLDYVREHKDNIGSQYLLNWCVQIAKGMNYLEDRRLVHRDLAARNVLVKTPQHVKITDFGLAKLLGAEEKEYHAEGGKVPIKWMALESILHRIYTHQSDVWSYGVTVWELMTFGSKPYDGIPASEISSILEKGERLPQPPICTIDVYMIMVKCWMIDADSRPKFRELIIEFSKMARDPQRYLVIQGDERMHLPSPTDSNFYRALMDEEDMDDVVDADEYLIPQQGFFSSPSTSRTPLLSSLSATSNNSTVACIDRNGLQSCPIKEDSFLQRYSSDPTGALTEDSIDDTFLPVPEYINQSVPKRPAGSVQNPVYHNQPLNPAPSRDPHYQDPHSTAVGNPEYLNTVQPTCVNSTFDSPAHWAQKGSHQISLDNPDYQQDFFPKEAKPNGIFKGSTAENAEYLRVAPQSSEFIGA

SMILES	viability at 10 µM (A-431 [1]) [%]	pIC50 [2]	pIC50 (HeLa)	pIC50 (A-431 [3])	pIC50 [4]
Cc1c2cc(O)c(=O)cc-2oc2cc(O)c(O)cc12	57	–	–	–	–
O=c1c2cccc(O)c2oc2cccc(O)c12	–	6.05	–	–	–
COC1=CC(=C(c2ccc(O)c(OC)c2)c2ccc(O)c(OC)c2)C=CC1=O	57	–	–	–	–
COc1cccc2c1C(=O)C1=C(C2=O)c2c(O)cc(CO)cc2[C@@H](O)[C@@H]1O	< 6	–	5.76	5.22	8.18
CCc1ccc(C2=C(O)C(=O)C(c3ccc(CC)cc3)=C(O)C2=O)cc1	17	–	4.76	4.75	7.52
COc1ccc(-c2cc(=O)cc(-c3ccc(OC)cc3)o2)cc1	< 6	–	5.09	5.42	9.82
O=c1c2ccccc2oc2cc([C@H](O)c3ccccc3)ccc12	57	–	–	–	–
O=C1c2ccccc2C(=O)c2c(O)c3c(c(O)c21)CCCC3	57	–	–	–	–
C=CC(C)(C)c1c2c(c(O)c3c(=O)c4ccc(O)c(O)c4oc13)C=CC(C)(C)O2 [MACLURAXANTHONE]	49	–	6.02	5.55	–
COc1c(O)cc2oc3cc(O)c(CC=C(C)C)c(O)c3c(=O)c2c1CC=C(C)C [MANGOSTIN]	< 6	–	4.92	5.14	–
